Point of comparison: `COCc1cnc2c(NC(=O)c3c(Cl)cccc3Cl)ccc(C)c2c1Cl`, melting point 180 °C. Against it:
- CN(C)Cc1ccc2cc(-c3nnc(CSCCOc4ccccc4)o3)ccc2c1 — lower, 95 to 96 °C
- COc1cccc2c(=O)c3c(O)cc(OCC(O)CO)cc3oc12 (configuration not stated) — higher, 189 °C
- CCCc1cc(C(O)=S)cc([N+](=O)[O-])c1-c1ccccc1 — not separable, 178 to 180 °C
- O=C(Nc1ccc(Oc2ccc(N3CCC(O)CC3)cc2)cc1)c1ccc(Cl)c(Cl)c1 — not separable, 178 to 180 °C
- COc1cc(OC)cc(-c2ncoc2-c2ccc(OC)c(N)c2)c1 — lower, 163 to 165 °C
- N=C(N[N+](=O)[O-])N1CCCC1 — higher, 188 to 191 °C
- COCC1=NC(NC(=O)Nc2cccc(C)c2)C(=O)N(CC(=O)N2CC3CCC(CC3)C2)c2c(C)cccc21 (configuration not stated) — not separable, 178 to 182 °C
- CCOC(=O)c1ccnc(-c2nc(=O)c3ccccc3s2)c1 — higher, 236 to 237 °C
- Nc1nc(Cl)cc(NC2C=CC(CO)C2)n1 (configuration not stated) — lower, 132 to 134 °C
- CN(C(=O)C1(C(=O)O)CC1)c1ccc(Cl)cc1 — lower, 156 to 158 °C
- O=C(C(=O)c1cccnc1)c1ccccc1 — lower, 56 to 57 °C
- O=C(NC1CCC(c2cc(Nc3cccc(C(F)(F)F)c3)n[nH]2)C1)C1CCCCC1 (configuration not stated) — lower, 163 °C
- Cc1ccc2c3c(c(Cl)nc2c1)C(=O)c1ccccc1-3 — higher, 208 to 211 °C
- CCOC(=O)C=Cc1ccc(C=CC(=O)OCC)c2ccccc12 — lower, 90 to 91 °C
- CCOC(=N)C(O)c1ccccc1 (configuration not stated) — lower, 65 to 67 °C
- Cc1c(C)c2c(c(C)c1NC(=O)CC(C)(C)C)C(c1ccc(C(C)O)cc1)CO2 (configuration not stated) — lower, 144 to 145 °C
- CC(=O)CCc1ccc2c(c1)Cc1cc(O)ccc1-2 — lower, 170 °C
- O=C(O)c1cnc(Nc2ccccc2F)[nH]c1=O — higher, 300 °C
- CC(=O)Nc1cscn1 — lower, 176 °C
- CN1CCN(C(=O)CCCCCNC(=O)c2cc(OCc3ccccc3)ccc2OCc2ccccc2)CC1 — lower, 78 to 79 °C
- O=C1NC(CC(=O)C2CC2)c2cccn2-c2sccc21 (configuration not stated) — higher, 200 °C
- CC(=O)Nc1cccc2cccc(N=[N+]=[N-])c12 — lower, 148 to 149 °C
- Nc1ccc2ccc(-c3ccccc3Cl)nc2n1 — higher, 193 °C
- Cc1nc2cccc(OCC(C)(C)C(=O)NCC3CC3)c2c(N)c1C(=O)O — lower, 177 to 179 °C
- COc1ncccc1-c1cccn2nc(Nc3ccc(C4CCN(C(=O)OC(C)(C)C)CC4)cc3)nc12 — lower, 101 to 103 °C
- CCOc1ccccc1COc1ccc2c(c1)C=C(C(=O)Nc1ccc(CN(C)C3CCOCC3)cc1)CCS2(=O)=O — higher, 211 to 214 °C
- C[C@@H]1CN(c2nccc(Oc3ccc(NC(=O)c4cc(F)cc(N5CCCCC5)c4)c4ccccc34)n2)C[C@H](C)O1 — lower, 174 to 176 °C
- CN(c1cccc2cc(C(=O)NCC(C)(C=O)SCc3ccccc3)[nH]c12)S(=O)(=O)c1cccs1 (configuration not stated) — lower, 149 to 150 °C
- COc1cc(Nc2nccc(-c3cccc(NC(=O)c4cc(C)on4)c3)n2)cc(OC)c1OC — lower, 173 to 175 °C
- CC1Oc2ccc(CN3CCC(c4ccc(C(F)(F)F)cc4)CC3)cc2NC1=O (configuration not stated) — higher, 217 to 218 °C
- O=C(c1ccccc1)N1CC2COCC2C1 (configuration not stated) — lower, 47 to 48 °C
- CCOC(=O)C(Cc1ccccc1)(C(=O)Nc1ccc(Cl)cc1)c1ccccc1 (configuration not stated) — lower, 83 to 85 °C
- CCOC(=O)c1cnn(-c2ccc(F)cc2)c1C — lower, 48 to 49 °C
- CS(=O)(=O)c1ccc(-c2ccc(Cl)n2-c2ccc(F)cc2)cc1 — not separable, 180 to 182 °C
- Cc1nc2c(OCc3ccccc3)nccn2c1N — lower, 126 to 133 °C
- COC(=O)C1CCc2ccc(O)cc2C1 (configuration not stated) — lower, 83 to 84 °C
- O=C(NNC(=O)c1ccccn1)c1ccccn1 — higher, 224 to 225 °C
- N#CC(C(=O)c1cccnc1)c1ccccc1 (configuration not stated) — lower, 148 to 149 °C
- CCOC(=O)C(=CNc1ccnn1-c1ccccc1)C(=O)OCC — lower, 96 to 97 °C
- CC(=O)c1cc2ccccc2cc1C(=O)O — lower, 145 °C
- Fc1ccc(-c2cncc(CN3CC=C(c4ccccc4)CC3)c2)cc1 — lower, 128 to 129 °C
- CCN(CC)c1nc(N)c2cc(OC)c(OC)cc2n1 — lower, 167 to 169 °C
- N#Cc1ccc(-c2cn(-c3ccc(C#N)cc3)c(Cc3ccccc3)n2)cc1 — not separable, 168 to 188 °C
- [N-]=[N+]=C1C(=O)Nc2c1cccc2C(F)(F)F — lower, 173 to 175 °C
- CS(=O)(=O)c1ncc(F)c(N)n1 — lower, 157 to 159 °C
- NC(=O)C1=CCCNC1 — lower, 122 to 124 °C
- Cc1n[nH]c2ccc(C3C(C#N)=C(C(F)F)NC(C(F)F)=C3C#N)cc12 — higher, 289 °C
- CN1C(=O)C(c2ccc(OC(F)F)cc2)(C23CC4CC(CC(C4)C2)C3)N=C1N (configuration not stated) — higher, 216 to 218 °C
- COc1c(C)c(C)c(OC)c(C(O)(c2cccnc2)C2CCCC2)c1C (configuration not stated) — lower, 126 to 127 °C
- CS(=O)(=O)Nc1cc(C(O)CNCCCCCCOCCC2CCCCC2)ccc1O (configuration not stated) — lower, 99 to 101 °C
- Cc1cc(C)c2nc(C3CC3)n(-c3ccc(C(C(=O)O)C4CCCC4)cc3)c2n1 (configuration not stated) — the same, 180 °C
- CC[C@H]1c2ccc(C#N)n2-c2cc(F)c(F)cc2N1S(=O)(=O)c1ccc(O)c(C)c1 — higher, 201 to 203 °C
- OCc1ccc(OCc2cccc(Cl)c2)cn1 — lower, 78 to 80 °C
- CC(O)(CCN1CCOCC1)c1ccc(-c2ccc(Cl)cc2)cc1 (configuration not stated) — lower, 106 to 108 °C
- N#CC(N)c1c(Cl)cccc1Cl (configuration not stated) — higher, > 300 °C
- Clc1cc2c(cc1Cn1ccnc1)OCO2 — lower, 99 to 102 °C
- CCN(CC)CCOc1cccc2c1c1cc(F)ccc1n2Cc1ccccc1 — lower, 68 to 69 °C
- CCCc1nc(C(C)(C)O)c(C(=O)OCOC(=O)C(C)(C)C)n1Cc1ccc(-c2ccccc2C(=O)O)cc1 — lower, 170 to 173 °C
- O=[N+]([O-])c1ccc2c(c1)C(O)Cc1ccc(F)cc1S2 (configuration not stated) — lower, 149 to 151 °C
- COc1cc(Nc2c(C#N)cnc3cc(/C=C/CCCCN4CCOCC4)c(OC)cc23)c(Cl)cc1Cl — lower, 99 to 100 °C
- CC[C@@H](c1ccccc1)N(Cc1ccc(C(=O)OC)c(F)c1)S(=O)(=O)c1ccc(Cl)cc1 — lower, 96 to 98 °C
- Cc1ccc(N2C(=O)C(O)=C(C(=O)c3ccc(C(C)C)cc3)C2c2ccc(N3CCN(C)CC3)cc2)nn1 (configuration not stated) — higher, 198 to 203 °C
- COc1ccc(-c2ccc(Cl)cc2)cc1COc1cccc2cc(NS(=O)(=O)C(F)(F)F)ccc12 — lower, 155 to 157 °C
- CCCCCCCCCCCCCCCC(=O)OCC1OC(N2CNC(N)=NC2=O)CC1O (configuration not stated) — lower, 123 to 124 °C
- COc1ccc(Nc2nc(NCCN(C)C)nc(NC3CCCCCC3)n2)cc1F — lower, 73 to 76 °C
- Fc1cccnc1N1CCN(Cc2nc3ccccc3[nH]2)CC1 — higher, 210 to 212 °C
- CC(C)N1CCNC(=O)c2ccc(Nc3ncc(Cl)c(N[C@@H]4CCCC[C@H]4NS(C)(=O)=O)n3)cc21 — higher, 189 to 191 °C
- O=C(O)CCCCCc1cccnc1 — lower, 100 to 105 °C
- N#CC(=CNC1CC1)C(=O)c1cc(F)c(Cl)cc1Cl — lower, 94 to 95 °C
- Nc1nc(N)c(CCNc2ccc(C(=O)N[C@@H](CCC(=O)O)C(=O)O)cc2)c(=O)[nH]1 — not separable, 180 to 185 °C
- CN1CCN(c2ccccc2C=C2NC(=O)N(c3ccc(Cl)cc3)C2=O)CC1 — higher, 193 to 194 °C
- COc1cccc(-c2cc3c4ccccc4ccn3n2)c1 — lower, 109 to 111 °C
- COc1cc2c(Nc3cccc(Cl)c3F)ncnc2cc1OC1CCN(C(=O)C(C)(C)CO)CC1 — lower, 111 to 115 °C
- CCOC(=O)c1cn2c3c(c(-c4ccccc4)c(F)cc3c1=O)OCC2C (configuration not stated) — higher, 270 to 272 °C
- ClCCCOc1ccccc1Nc1nc(Cl)nc2c1ncn2C1CCCC1 — lower, 110 to 112 °C
- Cc1c(C(=O)OC(C)(C)C)oc2cccc(O)c12 — lower, 158 to 159 °C
- Cc1nc2cc(NC(=O)c3cc4cc(F)cnc4n3Cc3ccncc3)ccc2n1C — higher, 263 to 265 °C
- CCc1noc(-c2cc3c4ccccc4n(CCCN4CCC(O)(c5ccccc5)CC4)c3cn2)n1 — lower, 169 to 170 °C
- NC(=O)C(CCCCCc1ccc(Cl)cc1)C(=O)O (configuration not stated) — lower, 125 to 126 °C
- COc1ccc(C(=O)Nc2ccccc2)c(NS(=O)(=O)c2ccc([N+](=O)[O-])cc2)c1 — higher, 224 to 227 °C
- Cc1cc(C)c2nc(C3CC3)n(Cc3ccc(C4(C(=O)O)Cc5ccccc5C4)s3)c2n1 — higher, 250 to 252 °C
- CC(C)(S)CNC(=O)/C(CCO)=C(\c1ccc(Cl)cc1)c1ccc(S(C)(=O)=O)cc1 — lower, 62 to 64 °C
- CC(C)(C)n1cc(-c2ccc(N(C=O)c3ccccc3)cc2)c2cncnc21 — lower, 163 to 164 °C
- CC1(C)CON(Cc2ccc(N3C(=O)c4cccnc4C3=O)cc2Cl)C1=O — lower, 139 to 141 °C
- COC(=O)C(Oc1ccc(Cl)cc1)c1ccc(S(=O)c2ccc(Cl)cc2)cc1 (configuration not stated) — lower, 134 to 144 °C
- C=C(C)c1ccc(OCCO)cc1 — lower, 78 to 80 °C
- Cc1cc(NCCNCC(O)COc2ccccc2)c2ccccc2n1 (configuration not stated) — lower, 151 to 152 °C
- COC(=O)c1cn2c3c(c(F)c(F)cc3c1=O)CC(C)N2C (configuration not stated) — higher, 184 to 185 °C
- CC(=O)NC(=O)C(Cl)c1ccccc1 (configuration not stated) — lower, 101 to 102 °C
- CCc1nnc2c(O)nc3cc(OC)ccc3n12 — higher, > 250 °C
- Cn1c(C(F)(F)F)cc(=O)n(-c2c(F)cc(Cl)c3c2OC(C)(C)C3O)c1=O (configuration not stated) — lower, 82 to 83 °C
- CS(=O)c1ccccc1C1CCCC2(C1)C(=O)Nc1ccccc12 (configuration not stated) — higher, 190 to 191 °C
- Cc1ccc(-c2ccc(-c3ccccc3)s2)s1 — lower, 102 °C
- CCOC(=O)c1cc(-c2ccccn2)[nH]n1 — lower, 103 to 105 °C
- CC1=C(CCC(C)CCC(=O)O)C(=O)c2ccccc2C1=O (configuration not stated) — lower, 58 to 61 °C
- Cc1ccc(NC(=S)NC(NC(=O)c2ccc(C)cc2)C(F)(F)F)cc1 (configuration not stated) — higher, 192 to 193 °C
- CC(=O)NC(=O)c1cccc(-c2noc(-c3ccccc3F)n2)c1 — lower, 119 to 120 °C
- CCOC(=O)C(=CNc1ccc(OC)c(=O)cc1)C(=O)OCC — lower, 108 to 110 °C
- CC(C=Cc1cccc(-c2cc3c(cc2C)C(C)(C)CCC3(C)C)c1)=CC(=O)O — lower, 99 to 101 °C
- CCC(=O)NCCC1=CCc2cc(Br)c(OC)cc21 — lower, 106 to 109 °C
- O=C(O)c1ccc(C=Cc2ccc(C(=O)O)cc2)cc1 — higher, > 280 °C

From a melting point compilation (Tetko et al.; mined from patent text by program, amines drawn as free bases though some values may be those of a salt)
